From US8580762B2, “Substituted purine and 7-deazapurine compounds” (Epizyme, Inc., priority 2010, dated 2013)

target: DOT1L(1-416) (Homo sapiens, UniProt Q8TEK3); experiment: Determination of IC50: DOT1L(1-416) methyltransferase assay, 3H-SAM, oligonucleosome substrate, Flashplate; assay type: biochemical; details: class symbols; read-out: DOT1L IC50
In short: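 Compounds in 10-point 3-fold DMSO dilutions were tested in reactions started with substrate mix of 200 nM [3H]-SAM, 600 nM unlabeled SAM and 20 nM oligonucleosome. Reactions ran 120 min at room temperature and were quenched with 100 μM SAM. Labeled substrate was captured on streptavidin Flashplates and counted by scintillation to give IC50.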

DOT1L(1-416), sequence (Q8TEK3 1-416): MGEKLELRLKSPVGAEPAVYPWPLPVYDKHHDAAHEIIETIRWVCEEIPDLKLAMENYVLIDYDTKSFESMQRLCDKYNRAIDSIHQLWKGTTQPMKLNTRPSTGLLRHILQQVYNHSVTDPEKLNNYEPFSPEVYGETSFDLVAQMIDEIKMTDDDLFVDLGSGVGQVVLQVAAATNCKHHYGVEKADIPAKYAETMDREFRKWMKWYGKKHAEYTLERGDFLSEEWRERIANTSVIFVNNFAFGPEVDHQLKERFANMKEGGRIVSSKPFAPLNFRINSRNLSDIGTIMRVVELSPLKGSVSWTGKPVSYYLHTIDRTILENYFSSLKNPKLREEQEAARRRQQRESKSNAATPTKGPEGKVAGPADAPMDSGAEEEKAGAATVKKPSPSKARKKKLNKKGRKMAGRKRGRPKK

SMILES | IC50
CC(C)N(C[C@H]1O[C@@H](n2cnc3c(N)ncnc32)[C@H](O)[C@@H]1O)[C@H]1C[C@H](CCc2nc3cc(C4CC4)ccc3[nH]2)C1 [Compound 119, (2R,3R,4S,5R)-2-(6-amino-9H-purin-9-yl)-5-((((1s,3R)-3-(2-(5-cyclopropyl-1H-benzo[d]imidazol-2-yl)ethyl)cyclobutyl) (isopropyl)amino)methyl)tetrahydrofuran-3,4-diol] | < 100 nM
COCC(C)(C)c1ccc2[nH]c(CC[C@H]3C[C@H](N(C[C@H]4O[C@@H](n5cnc6c(N)ncnc65)[C@H](O)[C@@H]4O)C(C)C)C3)nc2c1 [Compound 121, (2R,3R,4S,5R)-2-(6-amino-9H-purin-9-yl)-5-((isopropyl((1s,3R)-3-(2-(5-(1-methoxy-2-methylpropan-2-yl)-1H-benzo[d]imidazol-2-yl)ethyl)cyclobutyl)amino)methyl) tetrahydrofuran-3,4-diol] | < 100 nM
COCC(C)(C)c1ccc2[nH]c(CC[C@H]3C[C@@H](N(C[C@H]4O[C@@H](n5cnc6c(N)ncnc65)[C@H](O)[C@@H]4O)C(C)C)C3)nc2c1 [Compound 122, (2R,3R,4S,5R)-2-(6-amino-9H-purin-9-yl)-5-((isopropyl((1r,3S)-3-(2-(5-(1-methoxy-2-methylpropan-2-yl)-1H-benzo[d]imidazol-2-yl)ethyl)cyclobutyl)amino)methyl) tetrahydrofuran-3,4-diol] | < 100 nM
CC(C)N(C[C@H]1O[C@@H](n2cnc3c(N)ncnc32)[C@H](O)[C@@H]1O)[C@H]1C[C@H](CCc2nc3cc(CC(F)(F)F)ccc3[nH]2)C1 [Compound 123, (2R,3R,4S,5R)-2-(6-amino-9H-purin-9-yl)-5-((isopropyl((1s,3R)-3-(2-(5-(2,2,2-trifluoroethyl)-1H-benzo[d]imidazol-2-yl)ethyl)cyclobutyl)amino)methyl) tetrahydrofuran-3,4-diol] | < 100 nM
CN(C[C@H]1O[C@@H](n2cnc3c(N)ncnc32)[C@H](O)[C@@H]1O)[C@H]1C[C@@H](CCc2nc3cc(C4CCC4)ccc3[nH]2)C1 [Compound 131, (2R,3R,4S,5R)-2-(6-amino-9H-purin-9-yl)-5-((((1r,3S)-3-(2-(5-cyclobutyl-1H-benzo[d]imidazol-2-yl)ethyl)cyclobutyl) (methyl)amino)methyl) tetrahydrofuran-3,4-diol] | < 100 nM
CN(C[C@H]1O[C@@H](n2cnc3c(N)ncnc32)[C@H](O)[C@@H]1O)[C@H]1C[C@H](CCc2nc3cc(C4CCC4)ccc3[nH]2)C1 [Compound 132, (2R,3R,4S,5R)-2-(6-amino-9H-purin-9-yl)-5-((((1s,3R)-3-(2-(5-cyclobutyl-1H-benzo[d]imidazol-2-yl)ethyl)cyclobutyl) (methyl)amino)methyl) tetrahydrofuran-3,4-diol] | < 100 nM
CN(C[C@H]1O[C@@H](n2cnc3c(N)ncnc32)[C@H](O)[C@@H]1O)[C@H]1C[C@@H](CCc2nc3cc(C4(C#N)CC4)ccc3[nH]2)C1 [Compound 137, 1-(2-(2-((1S,3r)-3-((((2R,3S,4R,5R)-5-(6-amino-9H-purin-9-yl)-3,4-dihydroxytetrahydro-furan-2-yl)methyl)(methyl)amino)cyclobutyl)ethyl)-1H-benzo[d]imidazol-5-yl)cyclo-propanecarbonitrile] | < 100 nM
CN(C[C@H]1O[C@@H](n2cnc3c(N)ncnc32)[C@H](O)[C@@H]1O)[C@H]1C[C@H](CCc2nc3cc(C4(C#N)CC4)ccc3[nH]2)C1 [Compound 138, 1-(2-(2-((1R,3s)-3-((((2R,3S,4R,5R)-5-(6-amino-9H-purin-9-yl)-3,4-dihydroxytetrahydro-furan-2-yl)methyl)(methyl)amino)cyclobutyl)ethyl)-1H-benzo[d]imidazol-5-yl)cyclo-propanecarbonitrile] | < 100 nM
CC(C)N(C[C@H]1O[C@@H](n2cnc3c(N)ncnc32)[C@H](O)[C@@H]1O)C1CC(CCc2nc3cc(C4(C)CC4)ccc3[nH]2)C1 (stereo partly drawn) [Compound 139, (2R,3R,4S,5R)-2-(6-amino-9H-purin-9-yl)-5-((isopropyl(3-(2-(5-(1-methylcyclopropyl)-1H-benzo[d]imidazol-2-yl)ethyl)cyclobutyl)amino)methyl)tetrahydro-furan-3,4-diol] | < 100 nM

Further lines, results first:

IC50 | SMILES
< 100 nM | CC(C)N(C[C@H]1O[C@@H](n2cnc3c(N)ncnc32)[C@H](O)[C@@H]1O)[C@H]1C[C@@H](CCc2nc3cc(C4CC4)ccc3[nH]2)C1 [Compound 116, (2R,3R,4S,5R)-2-(6-amino-9H-purin-9-yl)-5-((((1r,3S)-3-(2-(5-cyclopropyl-1H-benzo[d]imidazol-2-yl)ethyl)cyclobutyl) (isopropyl)amino)methyl)tetrahydrofuran-3,4-diol]
< 100 nM | CC(C)N(C[C@H]1O[C@@H](n2cnc3c(N)ncnc32)[C@H](O)[C@@H]1O)C1CC(CCc2nc3cc(C4(C#N)CCC4)ccc3[nH]2)C1 (stereo partly drawn) [Compound 117, 1-(2-(2-(3-((((2R,3S,4R,5R)-5-(6-amino-9H-purin-9-yl)-3,4-dihydroxytetrahydro-furan-2-yl)methyl)(isopropyl)amino)cyclobutyl)ethyl)-1H-benzo[d]imidazol-5-yl)cyclo-butanecarbonitrile]
< 100 nM | COCC(C)(C)c1ccc2[nH]c(CCC3CC(N(C[C@H]4O[C@@H](n5cnc6c(N)ncnc65)[C@H](O)[C@@H]4O)C(C)C)C3)nc2c1 (stereo partly drawn) [Compound 118, (2R,3R,4S,5R)-2-(6-amino-9H-purin-9-yl)-5-((isopropyl(3-(2-(5-(1-methoxy-2-methylpropan-2-yl)-1H-benzo[d]imidazol-2-yl)ethyl)cyclobutyl)amino)methyl) tetrahydrofuran-3,4-diol]
< 100 nM | CC(C)N(C[C@H]1O[C@@H](n2cnc3c(N)ncnc32)[C@H](O)[C@@H]1O)C1CC(CCc2nc3cc(C(C)(C)C#N)ccc3[nH]2)C1 (stereo partly drawn) [Compound 120, 2-(2-(2-(3-((((2R,3S,4R,5R)-5-(6-amino-9H-purin-9-yl)-3,4-dihydroxytetrahydro-furan-2-yl)methyl)(isopropyl)amino)cyclobutyl)ethyl)-1H-benzo[d]imidazol-5-yl)-2-methylpropanenitrile]
< 100 nM | CC(C)N(C[C@H]1O[C@@H](n2cnc3c(N)ncnc32)[C@H](O)[C@@H]1O)[C@H]1C[C@@H](CCc2nc3cc(CC(F)(F)F)ccc3[nH]2)C1 [Compound 124, (2R,3R,4S,5R)-2-(6-amino-9H-purin-9-yl)-5-((isopropyl((1r,3S)-3-(2-(5-(2,2,2-trifluoroethyl)-1H-benzo[d]imidazol-2-yl)ethyl)cyclobutyl)amino)methyl) tetrahydrofuran-3,4-diol]
< 100 nM | CC(C)N(C[C@H]1O[C@@H](n2cnc3c(N)ncnc32)[C@H](O)[C@@H]1O)[C@H]1C[C@@H](CCc2nc3cc(C(C)(C)C#N)ccc3[nH]2)C1 [Compound 128, 2-(2-(2-((1S,3r)-3-((((2R,3S,4R,5R)-5-(6-amino-9H-purin-9-yl)-3,4-dihydroxytetrahydro-furan-2-yl)methyl)(isopropyl)amino)cyclobutyl)ethyl)-1H-benzo[d]imidazol-5-yl)-2-methylpropanenitrile]
< 100 nM | CC(C)N(C[C@H]1O[C@@H](n2cnc3c(N)ncnc32)[C@H](O)[C@@H]1O)[C@H]1C[C@H](CCc2nc3cc(C(C)(C)C#N)ccc3[nH]2)C1 [Compound 129, 2-(2-(2-((1R,3s)-3-((((2R,3S,4R,5R)-5-(6-amino-9H-purin-9-yl)-3,4-dihydroxytetrahydro-furan-2-yl)methyl)(isopropyl)amino)cyclobutyl)ethyl)-1H-benzo[d]imidazol-5-yl)-2-methylpropanenitrile]
< 100 nM | CN(C[C@H]1O[C@@H](n2cnc3c(N)ncnc32)[C@H](O)[C@@H]1O)C1CC(CCc2nc3cc(C4(C#N)CC4)ccc3[nH]2)C1 (stereo partly drawn) [Compound 130, 1-(2-(2-(3-((((2R,3S,4R,5R)-5-(6-amino-9H-purin-9-yl)-3,4-dihydroxytetrahydro-furan-2-yl)methyl)(methyl)amino)cyclobutyl)ethyl)-1H-benzo[d]imidazol-5-yl)cyclo-propanecarbonitrile]
< 100 nM | CN(C[C@H]1O[C@@H](n2cnc3c(N)ncnc32)[C@H](O)[C@@H]1O)[C@H]1C[C@@H](CCc2nc3cc(C4CC4)ccc3[nH]2)C1 [Compound 133, (2R,3R,4S,5R)-2-(6-amino-9H-purin-9-yl)-5-((((1r,3S)-3-(2-(5-cyclopropyl-1H-benzo[d]imidazol-2-yl)ethyl)cyclobutyl) (methyl)amino)methyl) tetrahydrofuran-3,4-diol]
< 100 nM | CN(C[C@H]1O[C@@H](n2cnc3c(N)ncnc32)[C@H](O)[C@@H]1O)[C@H]1C[C@H](CCc2nc3cc(C4CC4)ccc3[nH]2)C1 [Compound 134, (2R,3R,4S,5R)-2-(6-amino-9H-purin-9-yl)-5-((((1s,3R)-3-(2-(5-cyclopropyl-1H-benzo[d]imidazol-2-yl)ethyl)cyclobutyl) (methyl)amino)methyl) tetrahydrofuran-3,4-diol]
< 100 nM | CC(C)N(C[C@H]1O[C@@H](n2cnc3c(N)ncnc32)[C@H](O)[C@@H]1O)[C@H]1C[C@@H](CCc2nc3cc(C4(C#N)CC4)ccc3[nH]2)C1 [Compound 135, 1-(2-(2-((1S,3r)-3-((((2R,3S,4R,5R)-5-(6-amino-9H-purin-9-yl)-3,4-dihydroxytetrahydro-furan-2-yl)methyl)(isopropyl)amino)cyclobutyl)ethyl)-1H-benzo[d]imidazol-5-yl)cyclo-propanecarbonitrile]
< 100 nM | CC(C)N(C[C@H]1O[C@@H](n2cnc3c(N)ncnc32)[C@H](O)[C@@H]1O)[C@H]1C[C@H](CCc2nc3cc(C4(C#N)CC4)ccc3[nH]2)C1 [Compound 136, 1-(2-(2-((1R,3s)-3-((((2R,3S,4R,5R)-5-(6-amino-9H-purin-9-yl)-3,4-dihydroxytetrahydro-furan-2-yl)methyl)(isopropyl)amino)cyclobutyl)ethyl)-1H-benzo[d]imidazol-5-yl)cyclo-propanecarbonitrile]
